ChEMBL document CHEMBL6153087, “Emoquine-1: A Hybrid Molecule Efficient against Multidrug-Resistant Plasmodium Parasites, Including the Artemisinin-Resistant Quiescent Stage, and Also Active In Vivo” (J Med Chem, 2025)
pIC50: −log10 of the molar value. Activity calls are given as the source filed them. No cut-off for these calls is given here.

What was measured:
[1] = test system: Plasmodium falciparum; experiment: Antiplasmodial activity against artemisinin-sensitive Plasmodium falciparum F32 assessed as inhibition of parasite growth incubated for 48 hrs of SYBR green fluorescence-based method; assay type: functional, organism-based; conditions: F32, 48 h
[2] = test system: Heme; experiment: Inhibition of heme polymerization in acetate buffer at pH 5 assessed as reduction in beta-hematin formation at 10 molequiv incubated for 18 hrs by infrared spectroscopic analysis
[3] = Selectivity index, ratio of CC50 for cytotoxicity against African green monkey Vero cells to IC50 for antiplasmodial activity against artemisinin-resistant Plasmodium falciparum F32; assay type: toxicity, cell-based; conditions: read-out: Ratio CC50/IC50
[4] = test system: Plasmodium falciparum; experiment: Antiplasmodial activity against atovaquone-resistant Plasmodium falciparum clinical isolate Q120 assessed as inhibition of parasite growth incubated for 48 hrs of SYBR green fluorescence-based method; assay type: functional, organism-based
[5] = test system: Plasmodium falciparum; experiment: Antiplasmodial activity against synchronized ring stage DHA-induced quiescent artemisinin-resistant Plasmodium falciparum F32 assessed as decrease in parasite recrudescence at 1 uM pretreated with dihydroartemisinin for 6 hrs followed by compound administration for 48 hrs in presence of dihydroartemisinin by quiescent-stage survival assay; assay type: functional, organism-based
[6] = test system: Heme; experiment: Inhibition of heme polymerization in acetate buffer at pH 5 assessed as reduction in beta-hematin formation at 2.0 molequiv incubated for 18 hrs by infrared spectroscopic analysis relative to control
[7] = Cytotoxicity against African green monkey Vero cells assessed as cell metabolic activity incubated for 48 hrs by MTT assay; assay type: toxicity, cell-based; conditions: chlorocebus sabaeus
[8] = test system: Plasmodium falciparum; experiment: Antiplasmodial activity against artemisinin-resistant Plasmodium falciparum F32 assessed as inhibition of parasite growth incubated for 48 hrs of SYBR green fluorescence-based method; assay type: functional, organism-based; conditions: F32, 48 h
[9] = test system: Plasmodium falciparum; experiment: Antiplasmodial activity against Plasmodium falciparum; assay type: functional, organism-based
[10] = Inhibition of recombinant Plasmodium falciparum 3D7 FIKK8 by enzyme-coupled assay
[11] = test system: Plasmodium falciparum; experiment: Antiplasmodial activity against synchronized ring stage artemisinin-resistant Plasmodium falciparum F32 assessed as number of days required to reach 3% initial parasitemia by measuring median recrudescence time at 18 uM incubated for 48 hrs by recrudescence assay; assay type: functional
[12] = test system: Plasmodium falciparum; experiment: Antiplasmodial activity against synchronized ring stage artemisinin-sensitive Plasmodium falciparum F32 assessed as number of days required to reach 3% initial parasitemia by measuring median recrudescence time at 18 uM incubated for 48 hrs by recrudescence assay; assay type: functional
[13] = test system: Plasmodium vinckei petteri; experiment: Antiplasmodial activity Plasmodium vinckei petteri infected in female Swiss albino mouse model assessed as reduction in parasitemia administered intraperitoneally for 4 days and measured on day 5; assay type: functional; conditions: 120 h, route ip, time 5 day
[14] = test system: Plasmodium vinckei petteri; experiment: Antiplasmodial activity Plasmodium vinckei petteri infected in female Swiss albino mouse model assessed as reduction in parasitemia administered orally for 4 days and measured on day 5; assay type: functional; conditions: 120 h, route po, time 5 day
[15] = test system: Heme; experiment: Inhibition of heme polymerization in acetate buffer at pH 5 assessed as reduction in beta-hematin formation at 5 equiv incubated for 18 hrs by infrared spectroscopic analysis relative to control
[16] = test system: Plasmodium falciparum; experiment: Antiplasmodial activity against chloroquine-resistant Plasmodium falciparum clinical isolate IPC8461 assessed as inhibition of parasite growth incubated for 48 hrs of SYBR green fluorescence-based method; assay type: functional, organism-based
[17] = test system: Plasmodium falciparum; experiment: Antiplasmodial activity against chloroquine-resistant Plasmodium falciparum clinical isolate IPC8262 assessed as inhibition of parasite growth incubated for 48 hrs of SYBR green fluorescence-based method; assay type: functional, organism-based
[18] = test system: Heme; experiment: Inhibition of heme polymerization in acetate buffer at pH 5 assessed as reduction in beta-hematin formation at 15 equiv incubated for 18 hrs by infrared spectroscopic analysis relative to control
[19] = test system: Plasmodium falciparum; experiment: Antiplasmodial activity against synchronized ring stage DHA-induced quiescent artemisinin-resistant Plasmodium falciparum F32 assessed as decrease in parasite recrudescence by measuring time required for parasites to reach initial parasitemia at 1 uM pretreated with dihydroartemisinin for 6 hrs followed by compound administration for 48 hrs in presence of dihydroartemisinin by quiescent-stage survival assay; assay type: functional
[20] = Metabolic stability in human liver microsomes at 1 uM measured after 1 hrs by LC-MS/MS analysis; assay type: ADME, Microsome
[21] = test system: Plasmodium falciparum; experiment: Antiplasmodial activity against synchronized ring stage artemisinin-resistant Plasmodium falciparum F32 assessed as number of days required to reach 3% initial parasitemia by measuring median recrudescence time at 1 uM incubated for 48 hrs by recrudescence assay; assay type: functional
[22] = test system: Plasmodium falciparum; experiment: Antiplasmodial activity against synchronized ring stage artemisinin-sensitive Plasmodium falciparum F32 assessed as number of days required to reach 3% initial parasitemia by measuring median recrudescence time at 1 uM incubated for 48 hrs by recrudescence assay; assay type: functional
[23] = Thermal stability at 60 degreeC incubated for 2 months; assay type: physicochemical; conditions: 1460 h
[24] = Stability in human plasma assessed as parent compound remaining at 1 uM measured after 2 hrs by LC-MS/MS analysis; assay type: ADME, cell-free; conditions: read-out: Stability
[25] = Metabolic stability in human liver microsomes assessed as half-life at 1 uM measured after 1 hrs by LC-MS/MS analysis; assay type: ADME, Microsome
[26] = test system: Plasmodium falciparum; experiment: Antiplasmodial activity against synchronized ring stage artemisinin-resistant Plasmodium falciparum F32 assessed as number of days required to reach 3% initial parasitemia by measuring median recrudescence time at 7 uM incubated for 48 hrs by recrudescence assay; assay type: functional
[27] = test system: Plasmodium falciparum; experiment: Antiplasmodial activity against synchronized ring stage artemisinin-sensitive Plasmodium falciparum F32 assessed as number of days required to reach 3% initial parasitemia by measuring median recrudescence time at 7 uM incubated for 48 hrs by recrudescence assay; assay type: functional
[28] = test system: Plasmodium falciparum; experiment: Antiplasmodial activity against synchronized ring stage artemisinin-resistant Plasmodium falciparum F32 assessed as decrease in parasite recrudescence by measuring time required for parasites to reach initial parasitemia at 1 uM incubated for 48 hrs by recrudescence assay; assay type: functional
[29] = test system: Plasmodium falciparum; experiment: Antiplasmodial activity against synchronized ring stage artemisinin-resistant Plasmodium falciparum F32 assessed as decrease in parasite recrudescence by measuring time required for parasites to reach initial parasitemia at 200 nM incubated for 48 hrs by recrudescence assay; assay type: functional
[30] = test system: Plasmodium falciparum; experiment: Antiplasmodial activity against synchronized ring stage DHA-induced quiescent artemisinin-resistant Plasmodium falciparum F32 assessed as decrease in parasite recrudescence by measuring time required for parasites to reach initial parasitemia at 200 nM pretreated with dihydroartemisinin for 6 hrs followed by compound administration for 48 hrs in presence of dihydroartemisinin by quiescent-stage survival assay; assay type: functional
[31] = test system: Plasmodium vinckei petteri; experiment: Antiplasmodial activity Plasmodium vinckei petteri infected in female Swiss mouse model assessed as reduction in parasitemia at 0.1 mg/kg/day, ip administered for 4 days starting from 4 hrs post infection and measured on day 5 by giemsa staining based analysis; assay type: functional, organism-based; conditions: time 5.0 day
[32] = test system: Plasmodium vinckei petteri; experiment: Antiplasmodial activity Plasmodium vinckei petteri infected in female Swiss mouse model assessed as reduction in parasitemia at 25 mg/kg/day, po administered for 4 days starting from 4 hrs post infection and measured on day 5 by giemsa staining based analysis relative to control; assay type: functional; parameters: scale not given: the % may be the effect or the level left; conditions: time 5 day
[33] = Toxicity in female Swiss mouse model infected with Plasmodium vinckei petteri assessed as clinical signs at 0.1 to 10 mg/kg/day, ip administered for 4 days and measured after 30 days; assay type: organism-based; conditions: in vivo, 720 h, dose 0.1-10 mg/kg/day, time 30 day
[34] = test system: Plasmodium vinckei petteri; experiment: Antiplasmodial activity Plasmodium vinckei petteri infected in female Swiss mouse model assessed as reduction in parasitemia administered orally for 4 days starting from 4 hrs post infection and measured on day 30; assay type: functional; conditions: 720 h, route po, time 30 day
[35] = test system: Plasmodium vinckei petteri; experiment: Antiplasmodial activity Plasmodium vinckei petteri infected in female Swiss mouse model assessed as reduction in parasitemia at 10 mg/kg/day, ip administered for 4 days starting from 4 hrs post infection and measured on day 30 by giemsa staining based analysis; assay type: functional, organism-based; conditions: time 30.0 day
[36] = test system: Plasmodium vinckei petteri; experiment: Antiplasmodial activity Plasmodium vinckei petteri infected in female Swiss mouse model assessed as reduction in parasitemia at 1 mg/kg/day, ip administered for 4 days starting from 4 hrs post infection and measured on day 5 by giemsa staining based analysis relative to control; assay type: functional; parameters: scale not given: the % may be the effect or the level left; conditions: time 5 day
[37] = test system: Plasmodium vinckei petteri; experiment: Antiplasmodial activity Plasmodium vinckei petteri infected in female Swiss mouse model assessed as reduction in parasitemia at 10 mg/kg/day, ip administered for 4 days starting from 4 hrs post infection and measured on day 5 by giemsa staining based analysis; assay type: functional, organism-based; conditions: time 5.0 day
[38] = test system: Plasmodium falciparum; experiment: Antiplasmodial activity against synchronized ring stage artemisinin-resistant Plasmodium falciparum F32 assessed as number of days required to reach 3% initial parasitemia by measuring median recrudescence time at 0.5 uM incubated for 48 hrs by recrudescence assay; assay type: functional
[39] = test system: Heme; experiment: Inhibition of heme polymerization in acetate buffer at pH 5 assessed as reduction in beta-hematin formation at 1.2 molar ratio of drug to hemin incubated for 18 hrs by infrared spectroscopic analysis relative to control
[40] = test system: Plasmodium vinckei petteri; experiment: Antiplasmodial activity Plasmodium vinckei petteri infected in female Swiss mouse model assessed as reduction in parasitemia administered intraperitoneally for 4 days starting from 4 hrs post infection and measured on day 30; assay type: functional; conditions: 720 h, route ip, time 30 day
[41] = test system: Plasmodium falciparum; experiment: Antiplasmodial activity against synchronized ring stage artemisinin-sensitive Plasmodium falciparum F32 assessed as number of days required to reach 3% initial parasitemia by measuring median recrudescence time at 0.5 uM incubated for 48 hrs by recrudescence assay; assay type: functional
[42] = test system: Plasmodium falciparum; experiment: Antiplasmodial activity against synchronized ring stage artemisinin-resistant Plasmodium falciparum F32 assessed as decrease in parasite recrudescence by measuring time required for parasites to reach initial parasitemia at […] incubated for 54 hrs by recrudescence assay; assay type: functional

Compound	pIC50 [1]	selectivity ratio [3]	pIC50 [4]	CC50 at 48 h [7]	pIC50 [8]	pIC50 [16]	pIC50 [17]	also measured
Clc1ccc([C@@H](c2ccccc2)N2CCNCC2)cc1	5.22	< 2	5.05	20000 nM	< 5.00	–	–	inhibition [2]: inactive; Activity [5]: inactive; inhibition [6]: inactive
Cc1cc(O)c2c(c1)C(=O)c1cc(O)cc(O)c1C2=O [EMODIN]	–	< 0.7	–	34000 nM	< 4.30	–	–	pIC50 [9]: < 5.00; pIC50 [10]: 5.70
C[C@@H]1CC[C@H]2[C@@H](C)C(=O)O[C@@H]3O[C@@]4(C)CC[C@@H]1[C@]32OO4 [ARTEMISININ]	–	–	–	–	–	–	–	Time [11]: 10 days; Time [12]: 15 days; ED50 [13]: 4 mg/kg/day; ED50 [14]: 17 mg/kg/day
CCOCCOc1cc(O)c2c(c1)C(=O)c1cc(C)cc(O)c1C2=O	< 5.00	–	–	–	< 5.00	–	–	Activity [5]: inactive; inhibition [15]: 100%
Cc1cc(O)c2c(c1)C(=O)c1cc(OCCOCCN3CCN(c4ccnc5cc(Cl)ccc45)CC3)cc(O)c1C2=O	–	15	–	12000 nM	6.08	–	–	–
Cc1cc(O)c2c(c1)C(=O)c1cc(OCCN3CCN(c4ccnc5cc(Cl)ccc45)CC3)cc(O)c1C2=O	–	> 13	–	> 10000 nM	6.11	–	–	–
NCCNc1ccnc2cc(Cl)ccc12	7.55	> 925	5.64	> 50000 nM	7.27	6.45	6.87	inhibition [2]: inactive; Activity [5]: inactive; inhibition [6]: inactive; inhibition [18]: 100%
Clc1ccc([C@@H](c2ccccc2)N2CCN(CCNc3ccnc4cc(Cl)ccc34)CC2)cc1	7.12	140	5.05	14000 nM	7.00	7.28	7.48	Time [19]: 7 days; Stability [20]: Stable; Time [21]: 12 days; Time [22]: 11 days; Stability [23]: Stable; inhibition [6]: 100%; remaining at 2 h, 1 µM [24]: 100%; half-life at 1 µM [25]: 46 min
O=C1C(O)=C([C@H]2CC[C@H](c3ccc(Cl)cc3)CC2)C(=O)c2ccccc21 [ATOVAQUONE]	–	3700	5.33	7000 nM	8.72	9.00	9.15	Time [26]: 16 days; Time [19]: 20 days; Time [27]: 13 days; Time [28]: 14 days
CCN(CC)CCCC(C)Nc1ccnc2cc(Cl)ccc12 (configuration not stated) [CHLOROQUINE]	–	–	–	> 50000 nM	–	–	–	Time [29]: >20 days; Time [30]: 8 days
Cc1cc(O)c2c(c1)C(=O)c1cc(OCCOCCNCCNc3ccnc4cc(Cl)ccc34)cc(O)c1C2=O	7.23	222	7.62	12000 nM	7.27	7.08	7.48	Activity [31]: inactive; Time [19]: >22 days; Activity [32]: 44%; Activity [33]: Non-toxic; ED50 [34]: ~25 mg/kg/day; Activity [35]: Active; Recrudescence Not Observed; Activity [36]: 17%; Time [22]: >30 days; Stability [23]: Stable; Activity [37]: Not active; No Detectable Parasitemia Observed; Time [38]: 23 days; inhibition [39]: 100%; remaining at 2 h, 1 µM [24]: 100%; ED50 [40]: 4 mg/kg/day; Time [41]: 26 days
Clc1ccc2c(N3CCNCC3)ccnc2c1	5.85	–	–	–	5.88	–	–	–
C[C@H]1[C@@H](O)O[C@@H]2O[C@@]3(C)CC[C@H]4[C@H](C)CC[C@@H]1[C@@]24OO3 [ARTENIMOL]	8.66	12000	8.62	30000 nM	–	8.59	8.60	Time [42]: 8 days
